Literature values, collected in publication PMC10828988, “Tuning the Softness of the Pendant Arms and the Polyazamacrocyclic Backbone to Chelate the ^203Pb/^212Pb Theranostic Pair” (Inorganic Chemistry, 2024).

Set-up: method as in doi:10.1016/0010-8545(91)80023-7
Conditions: T = 25 °C, nonfunctionalized macrocycles; cited from earlier work

C1CNCCNCCNCCN1 [cyclen, 1,4,7,10-tetrazacyclododecane]
logK Pb^2+-macrocycle: 15.9
